Experiments:
YST-1 [1] = assay: % inhibition of CellTiter-Glo viability at highest tested concentration (72 h), relative to DMSO and benzethonium chloride controls; higher = more inhibition
Outline: (§1)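 Viability was scored by CellTiter-Glo ATP luminescence, scaled from vehicle to positive-control wells, with duplicates averaged where present. The cells, MPNST lines and primary human Schwann cells at 750–1000 per well, sat 72 h at 37 °C, 5% CO2, in 384-well plates preprinted with each compound at five concentrations in 10-fold steps. Four-parameter logistic fits were run on the data. These fits give drug sensitivity score and relative IC50 censored at the top concentration, and percent inhibition is reported at the top concentration.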

HS-Sch-2 [2] = assay: as above
Outline: as §1

HS-PSS [3] = assay: as above
Outline: as §1

HS-PSS [4] = assay: drug sensitivity score (DSS, CellTox-Green cytotoxicity, 72 h) (DSS (dimensionless)); higher = more cytotoxic; extreme values may be limits of the assay
Outline: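 MPNST cell lines and primary human Schwann cells were incubated 72 h at 37 °C in 384-well plates holding five 10-fold compound dilutions. CellTox-Green was added before seeding at a final 1:1000 dilution and reported fluorescence from DNA released by disrupted cells. Signals were scaled to vehicle and positive-control wells, and cultures failing plate quality control were dropped. Drug sensitivity score and relative IC50 come from four-parameter logistic fits, with IC50 censored at the top concentration.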

YST-1 [5] = assay: drug sensitivity score (DSS, CellTiter-Glo viability, 72 h) (DSS (dimensionless)); higher = more sensitive; extreme values may be limits of the assay
Outline: as §1

HS-Sch-2 [6] = assay: as above
Outline: as §1

HS-PSS [7] = assay: as above
Outline: as §1

SMILES	% inhibition (YST-1 [1]) [%]	% inhibition (HS-Sch-2 [2]) [%]	% inhibition (HS-PSS [3]) [%]	drug sensitivity score (HS-PSS [4])	drug sensitivity score (YST-1 [5])	drug sensitivity score (HS-Sch-2 [6])	drug sensitivity score (HS-PSS [7])
COc1ccc(C[C@H](NC(=O)[C@H](C)NC(=O)CN2CCOCC2)C(=O)N[C@@H](Cc2ccccc2)C(=O)[C@@]2(C)CO2)cc1 [ONX-0914] (max concentration tested 10000 nM)	101	101	100	17.5	18.1	21.7	17.6
O=C(Nc1ccc(OC(F)(F)F)cc1)c1sccc1NCc1ccnc2ccccc12 [OSI-930] (max concentration tested 2500 nM)	1.07	17.9	23.2	0	0	0.3	2.5
CC(=O)c1cnc2ccc(-c3cc(Cl)c(O)c(Cl)c3)nc2c1N[C@H]1CC[C@H](CN(C)C)CC1 [OTSSP167] (max concentration tested 1000 nM)	100	101	83.1	0.29	23.8	18.5	4.33
Cc1sc2c(c1C)C(c1ccc(Cl)cc1)=N[C@@H](CC(=O)Nc1ccc(O)cc1)c1nnc(C)n1-2 [OTX015] (max concentration tested 10000 nM)	69.2	75.4	59.5	0	14.5	14.6	10.7
COc1ncc(-c2ccc3nccc(-c4ccnnc4)c3c2)cc1NS(=O)(=O)c1ccc(F)cc1F [Omipalisib] (max concentration tested 1000 nM)	94	83.8	64.3	0	23.6	9.45	10.6
CC(C)c1cc(C(=O)N2Cc3ccc(CN4CCN(C)CC4)cc3C2)c(O)cc1O [Onalespib] (max concentration tested 2500 nM)	75.8	101	81.9	6.31	12.6	21.4	13.2
COC[C@H](NC(=O)c1cnc(C)s1)C(=O)N[C@@H](COC)C(=O)N[C@@H](Cc1ccccc1)C(=O)[C@@]1(C)CO1 [Oprozomib] (max concentration tested 2500 nM)	101	102	98.3	7.1	18.4	26.3	14.3
Cc1[nH]c(/C=C2\C(=O)Nc3ccccc32)c(C)c1CCC(=O)O [Orantinib] (max concentration tested 10000 nM)	20	0.75	15	20.3	0.72	0	0.29
CNC(=O)c1ccc2cc([C@@]3(O)CCn4cncc43)ccc2c1 [Orteronel] (max concentration tested 10000 nM)	7.23	-4.34	-7	0	0	0	0
C=CC(=O)Nc1cc(Nc2nccc(-c3cn(C)c4ccccc34)n2)c(OC)cc1N(C)CCN(C)C [Osimertinib] (max concentration tested 2500 nM)	63.7	73.2	66.3	0.95	6.9	4.21	5.5
O=C(O)C(=O)O.[NH-][C@@H]1CCCC[C@H]1[NH-].[Pt+2] [Oxaliplatin] (max concentration tested 100000 nM)	97.7	100	69.2	3.02	19.6	11.4	8.54
CN1CCN(c2cc(C(=O)Nc3ccc4c(c3)-c3c(c(C(N)=O)nn3-c3ccc(F)cc3)CC4)c(Cl)cn2)CC1 [PHA 408] (max concentration tested 10000 nM)	99.9	99.8	101	4.95	5.73	5.4	7.02
CCn1nnc2c(N3CCOCC3)nc(-c3ccc(NC(=O)Nc4ccc(C(=O)N5CCN(C)CC5)cc4)cc3)nc21 [PKI-402] (max concentration tested 2500 nM)	90.9	75.5	75.8	0.89	17.3	12.4	15.3
O=C(Nc1cc(Cl)cc2c1[nH]c1cnccc12)c1cccnc1 [PS-1145] (max concentration tested 25000 nM)	16.9	5.78	13.7	0	3.62	0	0.49
COc1cc(Br)c(Nc2nc(-c3c(C)nc4ncccn34)cs2)c(Br)c1 [PTC-209] (max concentration tested 10000 nM)	94.4	81	84.8	0	6.29	7.96	7.63
C1=N/C2=N/c3ccc(OCCN4CCCC4)c(c3)COC/C=C/COCc3cccc(c3)C(=C1)N2 [Pacritinib] (max concentration tested 10000 nM)	100	99.6	99.4	4.15	8.15	8.63	10.8
COc1ccc(COc2cc3oc(=O)c4cc(C(C)O)ccc4c3cc2OC)cc1 (stereo not drawn) [Palomid-529] (max concentration tested 10000 nM)	10.2	-4.31	2.33	0	0	0	0
CCOc1cc2ncc(C#N)c(Nc3ccc(F)c(Cl)c3)c2cc1NC(=O)/C=C/CN(C)C [Pelitinib] (max concentration tested 2500 nM)	47.9	89.6	73.9	1.05	4.87	11	12.8
Nc1nc2[nH]cc(CCc3ccc(C(=O)N[C@@H](CCC(=O)O)C(=O)O)cc3)c2c(=O)[nH]1 [Pemetrexed] (max concentration tested 10000 nM)	19.7	62.5	6.45	0	4.42	17.1	0
CCCCCCCCCCCCCCCCCCOP(=O)([O-])OC1CC[N+](C)(C)CC1 [Perifosine] (max concentration tested 2500 nM)	-0.19	4.74	0.4	0	0	0	0
FC(F)(F)c1ccc(CNc2ccc(Cc3c[nH]c4ncc(Cl)cc34)cn2)cn1 [Pexidartinib] (max concentration tested 10000 nM)	17.3	18.9	25.9	0	0.84	0.57	1.79
COc1ccc(Cl)c(Nc2nc3ccccc3nc2NS(=O)(=O)c2cccc(NC(=O)C(C)(C)N)c2)c1 [Pilaralisib] (max concentration tested 2500 nM)	42.6	14.3	7.45	0	2.53	0.34	0
CC(C)N(C[C@H]1O[C@@H](n2cnc3c(N)ncnc32)[C@H](O)[C@@H]1O)[C@H]1C[C@@H](CCc2nc3cc(C(C)(C)C)ccc3[nH]2)C1 [Pinometostat] (max concentration tested 1000 nM)	-2.52	-7.39	5.45	0	0	0	0
NCCNc1ccc(NCCN)c2c1C(=O)c1ccncc1C2=O [Pixantrone] (max concentration tested 10000 nM)	54.6	50.7	77.4	0	2.81	2.43	4.51
c1cc(CN2CCCNCCNCCCNCC2)ccc1CN1CCCNCCNCCCNCC1 [Plerixafor] (max concentration tested 10000 nM)	-8.03	5.96	14.2	0	0	0	0.55
C=CC(=O)N1CCC(Oc2cc3c(Nc4ccc(Cl)c(Cl)c4F)ncnc3cc2OC)CC1 [Poziotinib] (max concentration tested 1000 nM)	12.9	3.19	6.52	0	0.25	0	0
CCCCc1nc2cc(/C=C/C(=O)NO)ccc2n1CCN(CC)CC [Pracinostat] (max concentration tested 10000 nM)	100	101	94	6.63	22	15.9	12.4
CC[C@H](C)C(=O)O[C@H]1C[C@H](O)C=C2C=C[C@H](C)[C@H](CC[C@@H](O)C[C@@H](O)CC(=O)O)[C@H]21 [Pravastatin] (max concentration tested 10000 nM)	0.31	-3.68	24.1	0	0	0	1.44
COc1cccc(OCCCN)c1-c1cc(Nc2cnc(C#N)cn2)n[nH]1 [Prexasertib] (max concentration tested 10000 nM)	76.3	88.6	70	0.01	22.2	29.9	6.05
